{"source": "patent US4957940A", "about": "“Bicyclo heptane and bicyclo octane substituted inhibitors of cholesterol synthesis” (Warner-Lambert Company, priority 1989, dated 1990)", "test_system": "biosynthesis of cholesterol", "assay": "CSI screen: inhibition of cholesterol biosynthesis (14C-acetate incorporation into nonsaponifiable lipid by rat liver homogenate)", "format": "biochemical", "conditions": "50% inhibition of sterol synthesis over a one-hour period", "description": "The ability of compounds of the present invention to inhibit the biosynthesis of cholesterol was measured by a method (designated CSI screen) which utilizes the procedure described by R. E. Dugan, et al, Archiv. Biochem. Biophys., (1972), 152, 21-27. In this method, the level of HMG-CoA enzyme activity in standard laboratory rats is increased by feeding the rats a chow diet containing 5% cholestryramine for four days, after which the rats are sacrificed.\nThe rat livers are homogenized, and the incorporation of […] into nonsaponifiable lipid by the rat liver homogenate is measured. The micromolar concentration of compound required for 50% inhibition of sterol synthesis over a one-hour period is measured, and expressed as an IC50 value.", "data": [{"smiles": "C=C1CC2(C)CC1C(c1ccccc1)=C2/C=C/[C@@H]1C[C@@H](O)CC(=O)O1", "note": "(relative stereo)", "values": [{"measurement": "IC50", "value": 440, "unit": "nM"}]}]}
